# According to PMC11364768 (Nature Communications, 2024):
# No end group written: not given here.
# Columns and labels:
# E. coli (ATCC BAA-1025) = test: Minimal inhibition concentration; assay type: cell-based; settings: Escherichia coli, ATCCBAA1025, 20 h, read-out: Antimicrobial activity (MIC in µg/ml) E. coli
# [1] = test system: K. pneumoniae (ATCC27736); test: Minimal inhibition concentration; assay type: cell-based; settings: Klebsiella pneumoniae, ATCC27736, 20 h, read-out: Antimicrobial activity (MIC in µg/ml) K. pneumoniae
# P. aeruginosa = test: Wound mouse model, bacterial load on the wound surface; assay type: in vivo, Female ICR mice; settings: 10^7 CFU P. aeruginosa inoculated; 10 mg/kg applied to wound twice a day; n = 8
# [2] = test system: P. aeruginosa (ATCC 47085); test: Minimal inhibition concentration; assay type: cell-based; settings: Pseudomonas aeruginosa, ATCC47085, 20 h, read-out: Antimicrobial activity (MIC in µg/ml) P. aeruginosa
# S. aureus (ATCC 25904) = test: Minimal inhibition concentration; assay type: cell-based; settings: Staphylococcus aureus, ATCC25904, 20 h, read-out: Antimicrobial activity (MIC in µg/ml) S. aureus
# [3] = Blood test, RBC parameters after intraperitoneal injection; assay type: in vivo, ICR mice; settings: mice, 24 h after intraperitoneal injection
# Organ = assay type: in vivo, ICR mice; settings: mice, 10 mg/kg
# S. aureus = test: Bacterial resistance development, serial passage; assay type: cell-based, Staphylococcus aureus; settings: passaged every 24 h, n = 4
MIC [1],Compound,Blood test results [3],"organ-specific toxicity, tissue section images (Organ)",other results
0.06 µg/mL,C[C@H]1COc2c(N3CCN(C)CC3)c(F)cc3c(=O)c(C(=O)O)cn1c23 [Levofloxacin],–,–,MIC (E. coli (ATCC BAA-1025)): 2.93 µg/mL; bacteria on the infected wound after 24 h treatment (P. aeruginosa): 0 CFU; MIC [2]: 7.81 µg/mL; MIC (S. aureus (ATCC 25904)): 0.09 µg/mL
–,RQIRIWFQWKRWKWKR [T2-10],no obvious changes,did not observe organ-specific toxicity,–
1000 µg/mL,CN[C@H](CC(C)C)C(=O)N[C@H]1C(=O)N[C@@H](CC(N)=O)C(=O)N[C@H]2C(=O)N[C@H]3C(=O)N[C@H](C(=O)N[C@H](C(=O)O)c4cc(O)cc(O)c4-c4cc3ccc4O)[C@H](O)c3ccc(c(Cl)c3)Oc3cc2cc(c3O[C@@H]2O[C@H](CO)[C@@H](O)[C@H](O)[C@H]2O[C@H]2C[C@](C)(N)[C@H](O)[C@H](C)O2)Oc2ccc(cc2Cl)[C@H]1O [Vancomycin],–,–,–
–,RQIKIWFQWRRWKWKK [T1-5],no obvious changes,did not observe organ-specific toxicity,–
–,RQIKIWFQIRRWKWKK [T1-2],no obvious changes,did not observe organ-specific toxicity,–
–,O=C(O)c1cn(C2CC2)c2cc(N3CCNCC3)c(F)cc2c1=O [ciprofloxacin],–,–,passages after which S. aureus began to develop resistance (S. aureus): 10 passages
